# From ChEMBL document CHEMBL4020711, “Synthesis and biological evaluation of neoglycosphingolipids” (Eur J Med Chem, 2017)
# Activity calls are given as the source filed them. The calls are words filed in the database; no cut-off is given here.
# Tested on: B16
# Test: Upregulation of MMP-9 mRNA expression in mouse B16 cells at 1 uM after 24 hrs by qRT-PCR analysis
# Assay type: functional, cell-based
row,SMILES,Activity
1,CCCCCCCCCCCCCCCCCCOC(=O)CON(C)[C@@H]1O[C@H](CO)[C@@H](O[C@@H]2O[C@H](CO)[C@H](O)[C@H](O[C@]3(C(=O)O)C[C@H](O)[C@@H](NC(C)=O)[C@H]([C@H](O)[C@H](O)CO)O3)[C@H]2O)[C@H](O)[C@H]1O,Active

# Tested on: B16
# Test: Suppression of MMP-9 mRNA expression in mouse B16 cells at 1 uM after 24 hrs by qRT-PCR analysis
# Assay type: functional, cell-based
row,SMILES,inhibition
1,CCCCCCCCCCCCCCCCCCOC(=O)[C@H](COC(=O)CON(C)[C@@H]1O[C@H](CO)[C@H](O)[C@H](O)[C@H]1O)NC(=O)CCCCCCCCCCCCCCCCC,inactive
2,CCCCCCCCCCCCCCCCCCOC(=O)[C@H](COC(=O)CON(C)[C@@H]1O[C@H](CO)[C@@H](O[C@@H]2O[C@H](CO)[C@@H](O[C@H]3O[C@H](CO)[C@@H](O)[C@H](O)[C@H]3O)[C@H](O)[C@H]2O)[C@H](O)[C@H]1O)NC(=O)CCCCCCCCCCCCCCCCC,inactive
3,CCCCCCCCCCCCCCCCCCOC(=O)CON(C)[C@@H]1O[C@H](CO)[C@@H](O)[C@H](O)[C@H]1O,inactive

# Tested on: B16
# Test: Upregulation of MMP-9 mRNA expression in mouse B16 cells at 25 uM after 24 hrs by qRT-PCR analysis
# Assay type: functional, cell-based
row,SMILES,Activity
1,CCCCCCCCCCCCCCCCCCOC(=O)[C@H](COC(=O)CON(C)[C@@H]1O[C@H](CO)[C@@H](O[C@@H]2O[C@H](CO)[C@H](O)[C@H](O[C@]3(C(=O)O)C[C@H](O)[C@@H](NC(C)=O)[C@H]([C@H](O)[C@H](O)CO)O3)[C@H]2O)[C@H](O)[C@H]1O)NC(=O)CCCCCCCCCCCCCCCCC,Active
2,CCCCCCCCCCCCCCCCCCOC(=O)[C@H](COC(=O)CON(C)[C@@H]1O[C@H](CO)[C@@H](O)[C@H](O)[C@H]1O)NC(=O)CCCCCCCCCCCCCCCCC,Active
3,CCCCCCCCCCCCCCCCCCOC(=O)CON(C)[C@@H]1O[C@H](CO)[C@@H](O[C@@H]2O[C@H](CO)[C@H](O)[C@H](O)[C@H]2O)[C@H](O)[C@H]1O,Active
4,CCCCCCCCCCCCC/C=C/[C@H](O)[C@@H](CO[C@@H]1O[C@H](CO)[C@@H](O[C@@H]2O[C@H](CO)[C@H](O)[C@H](O[C@]3(C(=O)O)C[C@H](O)[C@@H](NC(C)=O)[C@H]([C@H](O)[C@H](O)CO)O3)[C@H]2O)[C@H](O)[C@H]1O)NC(=O)CCCCCCCCCCCCCCCCC,Active
5,CCCCCCCCCCCCCCCCCCOC(=O)[C@H](COC(=O)CON(C)[C@@H]1O[C@H](CO)[C@@H](O[C@@H]2O[C@H](CO)[C@H](O)[C@H](O)[C@H]2O)[C@H](O)[C@H]1O)NC(=O)CCCCCCCCCCCCCCCCC,Active
6,CCCCCCCCCCCCCCCCCCOC(=O)CON(C)[C@@H]1O[C@H](CO)[C@H](O)[C@H](O)[C@H]1O,Active
7,CCCCCCCCCCCCCCCCCCOC(=O)CON(C)[C@@H]1O[C@H](CO)[C@@H](O[C@@H]2O[C@H](CO)[C@@H](O[C@H]3O[C@H](CO)[C@@H](O)[C@H](O)[C@H]3O)[C@H](O)[C@H]2O)[C@H](O)[C@H]1O,Active
